Results from the NIST ThermoML archive (doi:10.1016/j.jct.2013.10.023).
± gives the expanded uncertainty stated by the source.

Assay: xn = mol fraction of the nth substance listed
Settings: 101 kPa, Liquid; for viscosity: Capillary tube (Ostwald / Ubbelohde) method; for mass density: Vibrating tube method

CC(=O)[O-].CCn1cc[n+](C)c1 [1-ethyl-3-methylimidazolium acetate] + CCOS(=O)(=O)[O-].CCn1cc[n+](C)c1
Settings | mass density [kg/m3] | viscosity [mPa·s]
298.15 K, x1 = 0.0993 | 1226.62 ± 10 | 97.2 ± 2.2
298.15 K, x1 = 0.2011 | 1214.23 ± 10 | 99.93 ± 2.3
298.15 K, x1 = 0.2973 | 1202.11 ± 10 | 101.8 ± 2.4
298.15 K, x1 = 0.3917 | 1189.85 ± 10 | 105.2 ± 2.5
298.15 K, x1 = 0.5069 | 1174.26 ± 10 | 110.1 ± 2.6
298.15 K, x1 = 0.5988 | 1161.36 ± 10 | 114.1 ± 2.8
298.15 K, x1 = 0.705 | 1145.81 ± 10 | 120.1 ± 3
298.15 K, x1 = 0.8012 | 1131.13 ± 10 | 125.8 ± 3.2
298.15 K, x1 = 0.9007 | 1115.5 ± 10 | 131 ± 3.3
298.15 K, x1 = 1 | 1099.04 ± 10 | 138.4 ± 3.6
308.15 K, x1 = 0.0993 | 1219.9 ± 10 | 61.11 ± 1.3
308.15 K, x1 = 0.2011 | 1207.5 ± 10 | 61.27 ± 1.3
308.15 K, x1 = 0.2973 | 1195.48 ± 10 | 62.35 ± 1.3
308.15 K, x1 = 0.3917 | 1183.26 ± 10 | 63.63 ± 1.3
308.15 K, x1 = 0.5069 | 1167.73 ± 10 | 65.47 ± 1.4
308.15 K, x1 = 0.5988 | 1154.86 ± 10 | 66.99 ± 1.4
308.15 K, x1 = 0.705 | 1139.5 ± 10 | 69.07 ± 1.5
308.15 K, x1 = 0.8012 | 1124.87 ± 10 | 71.01 ± 1.5
308.15 K, x1 = 0.9007 | 1109.3 ± 10 | 73.4 ± 1.6
308.15 K, x1 = 1 | 1092.95 ± 10 | 76.1 ± 1.6
318.15 K, x1 = 0.0993 | 1213.21 ± 10 | 40.47 ± 0.85
318.15 K, x1 = 0.2011 | 1200.9 ± 10 | 41.05 ± 0.86
318.15 K, x1 = 0.2973 | 1188.92 ± 10 | 41.59 ± 0.87
318.15 K, x1 = 0.3917 | 1176.76 ± 10 | 42.12 ± 0.88
318.15 K, x1 = 0.5069 | 1161.31 ± 10 | 41.77 ± 0.88
318.15 K, x1 = 0.5988 | 1148.5 ± 10 | 43.3 ± 0.91
318.15 K, x1 = 0.705 | 1133.15 ± 10 | 43.93 ± 0.92
318.15 K, x1 = 0.8012 | 1118.65 ± 10 | 44.55 ± 0.93
318.15 K, x1 = 0.9007 | 1103.14 ± 10 | 45.24 ± 0.95
318.15 K, x1 = 1 | 1086.88 ± 10 | 45.9 ± 0.96
328.15 K, x1 = 0.0993 | 1206.59 ± 10 | 29.06 ± 0.61
328.15 K, x1 = 0.2011 | 1194.33 ± 10 | 29.19 ± 0.61
328.15 K, x1 = 0.2973 | 1182.38 ± 10 | 29.32 ± 0.61
328.15 K, x1 = 0.3917 | 1170.26 ± 10 | 29.44 ± 0.62
328.15 K, x1 = 0.5069 | 1154.88 ± 10 | 29.58 ± 0.62
328.15 K, x1 = 0.5988 | 1142.13 ± 10 | 29.69 ± 0.62
328.15 K, x1 = 0.705 | 1126.87 ± 10 | 29.81 ± 0.63
328.15 K, x1 = 0.8012 | 1112.55 ± 10 | 29.91 ± 0.63
328.15 K, x1 = 0.9007 | 1097.01 ± 10 | 30 ± 0.63
328.15 K, x1 = 1 | 1080.86 ± 10 | 30.1 ± 0.63
338.15 K, x1 = 0.0993 | 1200.01 ± 10 | 20.7 ± 0.43
338.15 K, x1 = 0.2011 | 1187.79 ± 10 | 20.78 ± 0.44
338.15 K, x1 = 0.2973 | 1175.91 ± 10 | 20.84 ± 0.44
338.15 K, x1 = 0.3917 | 1163.85 ± 10 | 20.89 ± 0.44
338.15 K, x1 = 0.5069 | 1148.54 ± 10 | 20.92 ± 0.44
338.15 K, x1 = 0.5988 | 1135.86 ± 10 | 20.92 ± 0.44
338.15 K, x1 = 0.705 | 1120.68 ± 10 | 20.89 ± 0.44
338.15 K, x1 = 0.8012 | 1106.35 ± 10 | 20.86 ± 0.44
338.15 K, x1 = 0.9007 | 1090.93 ± 10 | 20.84 ± 0.44
338.15 K, x1 = 1 | 1074.86 ± 10 | 20.8 ± 0.44
348.15 K, x1 = 0.0993 | 1196.34 ± 10 | 15.63 ± 0.33
348.15 K, x1 = 0.2011 | 1184.12 ± 10 | 15.58 ± 0.33
348.15 K, x1 = 0.2973 | 1172.27 ± 10 | 15.5 ± 0.33
348.15 K, x1 = 0.3917 | 1160.23 ± 10 | 15.39 ± 0.32
348.15 K, x1 = 0.5069 | 1144.94 ± 10 | 15.24 ± 0.32
348.15 K, x1 = 0.5988 | 1132.29 ± 10 | 15.1 ± 0.32
348.15 K, x1 = 0.705 | 1117.12 ± 10 | 14.91 ± 0.31
348.15 K, x1 = 0.8012 | 1102.78 ± 10 | 14.72 ± 0.31
348.15 K, x1 = 0.9007 | 1087.39 ± 10 | 14.51 ± 0.3
348.15 K, x1 = 1 | 1071.37 ± 10 | 14.28 ± 0.3
358.15 K, x1 = 0.0993 | 1187 ± 10 | 12.57 ± 0.26
358.15 K, x1 = 0.2011 | 1174.89 ± 10 | 12.8 ± 0.27
358.15 K, x1 = 0.2973 | 1163.13 ± 10 | 12.95 ± 0.27
358.15 K, x1 = 0.3917 | 1151.18 ± 10 | 12.93 ± 0.27
358.15 K, x1 = 0.5069 | 1136.03 ± 10 | 12.9 ± 0.27
358.15 K, x1 = 0.5988 | 1123.47 ± 10 | 12.81 ± 0.27
358.15 K, x1 = 0.705 | 1108.41 ± 10 | 12.7 ± 0.27
358.15 K, x1 = 0.8012 | 1094.15 ± 10 | 12.47 ± 0.26
358.15 K, x1 = 0.9007 | 1078.94 ± 10 | 12.17 ± 0.26
358.15 K, x1 = 1 | 1063.03 ± 10 | 11.53 ± 0.24
